Measured values as given in patent US20260373078A1 (NANJING QINLING PHARMACEUTICAL TECHNOLOGY COMPANY LIMITED, priority 2023, published 2026).

Columns and labels:
[1] = tested on: human glioma cancer cells; settings: Tsai et al., Int J Mol Sci. 2012; cited from earlier work
[2] = Water solubility of wogonin / uniform solution with arginine; assay type: physicochemical; settings: arginine 2%-10% (w/v)
Description: In addition, in order to ensure that a pH of the solution remains stable within a range of 7.0-11.0, an appropriate amount of citric acid may need to be added to the formulation, with a content of 0.01%-0.05% (w/v).

content of wogonin at which a uniform solution may be obtained [2]: 0.1-5.0 % (w/v)
SMILES: COc1c(O)cc(O)c2c(=O)cc(-c3ccccc3)oc12 [Wogonin, wogonin]
reactive oxygen species production and cell apoptosis [1]: induces reactive oxygen species production and cell apoptosis
